# Test results taken from publication PMC1810525, “Antagonism of the prostaglandin D2 receptor CRTH2 attenuates asthma pathology in mouse eosinophilic airway inflammation” (Respiratory Research, 2007).
# How the values were obtained:
# [1] = tested on: OVA-challenged BALB/c mice; test: Mouse model of allergic asthma (OVA), lung tissue eosinophils and mucus cells histology; assay type: in vivo; conditions: 5 mg/kg orally twice daily days 14 and 15, OVA-challenged mice, 24 hr after last challenge; p < 0.05 vs vehicle
# Description: Female BALB/c mice about 6 weeks of age (MoB A/S; Ry, Denmark) were kept in well-controlled animal housing facilities and fed ad libitum. The study was approved by the Regional Ethics Committee in Malmoe-Lund, Sweden. All groups of mice (n = 10 in each group) were immunized by intraperitoneal (i.p) injections of ovalbumin (OVA, 10 μg per injection; grade V, Sigma, St Louis, Mo) absorbed to alum adjuvant (Al(OH)3; Sigma) at day 0 as described previously. […] Control animals received saline challenge. Animals were sacrificed 24 hr after the last allergen challenge by pentobarbital i.p followed by bronchoalveolar lavage (BAL) and lung tissue sampling. In preliminary studies it was ascertained that daily allergen challenges for only a few days sufficed to produce a significant airway tissue eosinophilia as well as goblet cell hyperplasia. On days 14 and 15 mice were treated twice daily with TM30089 and ramatroban (BAY3405), 5 mg/kg orally. […] Drugs were administered 30 minutes before and 4 hr after each challenge. The dose of ramatroban was selected in accord with previous reports. Furthermore, ramatroban and TM30089 differ chemically merely by the move of one carbon atom from the carboxyl side chain in ramatroban to the sulfonamide nitrogen in TM30089 - thus they have the same molecular weight and other important structural features in common - so it is highly reasonable to assume they will have very similar PK properties. […] Eosinophils were detected by histochemical visualization of cyanide-resistant eosinophil peroxidase (EPO) activity. In brief, 5 μm cryo sections were incubated for 8 min at room temperature in PBS buffer (pH 7.4) supplemented with 3.3-diaminobenzidine tetrahydrochloride (60 mg/100 ml; Sigma), 30% H2O2 (0.3 ml/100 ml), and NaCN (120 mg/100 ml). Slides were then rinsed in tap water and mounted in […] medium (Merck, Darmstadt, Germany). […] Although the focus in this study was on tissue pathology BAL was also carried out (see below). Histology analyses were performed and quantified in a blinded manner. To compare histological data, the non-parametric Kruskal-Wallis test and followed by Connover's test was applied using Analyze ItTM (Analyse-it software Ltd., Leeds, UK). Data are expressed as mean ± SEM. A value of p < 0.05 was considered statistically significant.
# [2] = tested on: OVA-challenged BALB/c mice; test: Mouse model of allergic asthma (OVA), bronchoalveolar lavage eosinophils; assay type: in vivo; conditions: 5 mg/kg orally twice daily, 24 hr after second challenge, allergen/vehicle 1.0 ± 0.2 %
# Excerpt: Female BALB/c mice about 6 weeks of age (MoB A/S; Ry, Denmark) were kept in well-controlled animal housing facilities and fed ad libitum. The study was approved by the Regional Ethics Committee in Malmoe-Lund, Sweden. […] Sigma) at day 0 as described previously. […] Control animals received saline challenge. Animals were sacrificed 24 hr after the last allergen challenge by pentobarbital i.p followed by bronchoalveolar lavage (BAL) and lung tissue sampling. In preliminary studies it was ascertained that daily allergen challenges for only a few days sufficed to produce a significant airway tissue eosinophilia as well as goblet cell hyperplasia. On days 14 and 15 mice were treated twice daily with TM30089 and ramatroban (BAY3405), 5 mg/kg orally. […] Drugs were administered 30 minutes before and 4 hr after each challenge. The dose of ramatroban was selected in accord with previous reports. […] The total number of cells was quantified using a […] (NucleoCounter®, Chemometec A/S, Allerod, Denmark) and 5 × 10^5 cells cytocentrifuged to microscope slides. Differential cell counts were performed on May-Grünwald Giemsa stained slides and percentage of eosinophils, lymphocytes, neutrophils, and macrophages determined by counting 200–300 cells in a blinded manner. […]
SMILES,allergen challenge-induced mucus cell hyperplasia [1],allergen challenge-induced peribronchial lung tissue eosinophilia [1],BALF eosinophils [2] [%]
CN(C1CCc2c(c3ccccc3n2CC(=O)O)C1)S(=O)(=O)c1ccc(F)cc1 (stereo not drawn) [TM30089],significantly diminished,significantly diminished,0.5 ± 0.01
"O=C(O)CCn1c2c(c3ccccc31)C[C@H](NS(=O)(=O)c1ccc(F)cc1)CC2 [ramatroban, reference compound]",significantly diminished,significantly diminished,0.4 ± 0.01
